Laboratory results reported in article PMC8662641, “Site-Specific Labeling of Endogenous Proteins Using CoLDR Chemistry” (Journal of the American Chemical Society, 2021).

Experiments:
BTK kinase domain [1] = target: T1, BTK kinase domain (Homo sapiens, UniProt Q06187); assay: Time-dependent labeling of BTK, kinact and Ki of 1b; format: binding; parameters: BTK kinase domain was expressed and purified as previously reported; made in house
Method: To assess the kinetic parameters of labeling, we performed a time-dependent incubation experiment of BTK (200 nM) with various concentrations of 1b (300–2000 nM, 20 mM Tris, pH 8, 14 °C; […]. page 9:
Figure S5. Determination of kinact and Ki parameters of CoLDR probe 1b. A. Depletion of unlabelled BTK (200 nM) […]
reaction was monitored by LC-MS. B. The rate constants as extrapolated from A. as a function of the concentration […]
(1 picture or pasted object on this page, not shown here)
Analysis was done using MaxQuant 1.6.3.4. The sequence of BTK was used for the analysis. The digestion enzyme was set to Trypsin with a maximum number of missed cleavages of 0.
Carbamidomethyl and the modification by the molecule were included as variable modifications on cysteine. The “Re-quantify” option was enabled. Contaminants were included. […] The triplicate measured for each compound (or for DMSO-treated protein) was analyzed separately.
Following MaxQuant analysis, only fully cleaved peptides were quantified and cysteine-containing peptides that were not modified by either iodoacetamide or compound were ignored.
The intensity for each peptide was calculated as the average of the three triplicates. […]
from the stock solution. […] The labeling percentage for a compound was determined as the labeling of a specific compound (alone or together with other compounds) divided by the overall detected protein species. […]

BTK kinase domain [2] = target: T1, BTK kinase domain; assay: Labeling of recombinant BTK by intact protein LC/MS; format: binding; parameters: BTK kinase domain was expressed and purified as previously reported; made in house; conditions: BTK 10.7 µM, 20 µM compound, 1 hour
BTK = BTK (Homo sapiens, UniProt Q06187); assay: BTK activity in Mino cells (autophosphorylation); format: cell-based; parameters: We incubated Mino B cells with probes containing different tags; endogenous in cells; host or cells: Mino cells; conditions: Mino cells, 1 h; 100 nM probes, 1 μM ibrutinib or Ibr-H
Method: The cells were harvested, and immunoblots of phospho-BTK, total-BTK, and β-actin were performed.
Cell pellets were washed with ice-cold PBS and lysed using RIPA buffer (Sigma, R0278). […] Samples containing 50 μg of total protein were prepared with 4× LDS sample buffer (NuPAGE, Thermo Fischer Scientific, NP0007) and were then resolved on a 4–20% Bis-Tris gel (GeneScript SurePAGE, M00657). […] The EZ-ECL kit (Biological Industries, 20-500-1000) was used to detect HRP activity.

primary mouse B cells = assay: B-cell response experiment (CD86 after anti-IgM); format: cell-based; conditions: 24 h treatment, 1–1000 nM
Method: Splenic cells from C57BL/6 mice were isolated by forcing spleen tissue through the mesh into PBS containing 2% fetal calf serum and 1 mM EDTA, and red blood cells were depleted by lysis buffer. […] Following a 24 h incubation, cells were stimulated with anti-IgM overnight (5 μg/mL, Sigma-Aldrich). […] Single-cell suspensions were analyzed by a flow cytometer (CytoFlex, Beckman Coulter).

T1 sequence (Q06187 402-655 limits assumed): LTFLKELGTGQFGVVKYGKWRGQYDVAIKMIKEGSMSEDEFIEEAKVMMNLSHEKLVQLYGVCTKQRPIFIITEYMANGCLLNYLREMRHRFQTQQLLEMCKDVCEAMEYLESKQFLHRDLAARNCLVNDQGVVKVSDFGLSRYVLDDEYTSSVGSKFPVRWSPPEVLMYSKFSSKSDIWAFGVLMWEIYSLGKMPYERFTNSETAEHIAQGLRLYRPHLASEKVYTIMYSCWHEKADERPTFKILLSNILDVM
Sequence of BTK (Q06187 whole entry): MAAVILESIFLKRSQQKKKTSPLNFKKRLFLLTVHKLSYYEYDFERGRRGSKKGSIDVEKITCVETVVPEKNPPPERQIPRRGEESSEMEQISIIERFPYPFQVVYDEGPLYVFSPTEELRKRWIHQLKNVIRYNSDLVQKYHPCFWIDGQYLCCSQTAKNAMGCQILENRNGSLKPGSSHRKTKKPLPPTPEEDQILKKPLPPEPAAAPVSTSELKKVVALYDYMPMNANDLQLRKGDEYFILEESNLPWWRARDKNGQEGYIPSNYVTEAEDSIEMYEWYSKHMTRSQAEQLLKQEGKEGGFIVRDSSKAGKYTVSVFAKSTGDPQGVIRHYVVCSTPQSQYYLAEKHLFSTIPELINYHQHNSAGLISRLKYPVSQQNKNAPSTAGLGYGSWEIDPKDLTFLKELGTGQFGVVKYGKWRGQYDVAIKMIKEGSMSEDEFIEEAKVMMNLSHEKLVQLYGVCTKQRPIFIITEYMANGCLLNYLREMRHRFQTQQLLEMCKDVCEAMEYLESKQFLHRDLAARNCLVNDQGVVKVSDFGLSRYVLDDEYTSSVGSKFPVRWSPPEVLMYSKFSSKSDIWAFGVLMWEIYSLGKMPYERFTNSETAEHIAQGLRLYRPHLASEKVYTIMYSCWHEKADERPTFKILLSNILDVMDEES

SMILES: C#CCCNC(=O)C(=C)CN1CCC[C@@H](n2nc(-c3ccc(Oc4ccccc4)cc3)c3c(N)ncnc32)C1 [1b]
- reversible binding component weaker than ibrutinib (BTK kinase domain [1]; 1b Ki compared with reported ibrutinib Ki): about 5 fold
- kinact (BTK kinase domain [1]; BTK 200 nM, 1b 300–2000 nM, 20 mM Tris, pH 8, 14 °C): 0.0278 s⁻¹
- labeling of BTK (SPR sample preparation) (BTK kinase domain [2]): 100%
- BTK autophosphorylation after anti-IgM (BTK): BTK remained active after labeling
- B cell activation (CD86 expression) after anti-IgM (primary mouse B cells): did not inhibit the activation of B cells
